Source: patent publication US20070202158A1, “Methods Of Administering Water-Soluble Prodrugs Of Propofol For Extended Sedation” (MGI GP, Inc., priority 2003, published 2007)

Key:
[1] = Plasma concentration of propofol derived from the test prodrug in rats (Table I); type: in vivo; conditions: rat; for F_Cmax / F_AUCt: relative to 5 mg/kg IV; for AUCt / Cmax: propofol in plasma; for AUCt: 0-360 min
Experimental: Upon administration, the test prodrug is converted in the body into propofol, its pharmacologically active metabolite. The pharmacokinetic profile, i.e. the blood plasma concentration of propofol derived from the test prodrug, was assessed in a separate experiment. Male Sprague-Dawley Rats (225-250 g) were obtained with indwelling jugular or intraduodenal catheters (Hilltop Labs, PA). On the day of testing, control blood samples were taken from the jugular vein prior to dosing. O-phosphonooxymethyl propofol disodium salt was then dosed in different concentrations in groups of 2-3 rats. The test prodrug was administered either by the oral, intravenous or intraduodenal routes. Blood samples (0.5 ml) were taken at 5, 15, 30, 45, 60, 120, 240 and 360 min after administration of the test prodrug. Blood samples were centrifuged to obtain plasma and stored frozen until analysis. The outcome of this experiment is depicted in the following table I:
“Cmax” is the mean maximum plasma concentration; “F Cmax” is the calculated mean bioavailability of the Cmax for propofol generated from the tested prodrug (as administered via various routes and at various doses), relative to an intravenous dose of 5 mg/kg at Cmax; “AUCt” is the mean area under the curve from time 0 to the last measured time point (360 min); “F AUCt” is the calculated mean bioavailability for AUCt. “Bioavailability” is the quotient, expressed as per cent, of the Cmax or AUCt for intragastric (po) or intraduodenal (GB) administration, and the Cmax or AUCt for a 5 mg/kg intravenous dose, adjusted for dose. […] This transformation provides a reasonable measure to compare the systemic exposure to propofol generated from the test compound (after administration of various doses by various routes) to systemic propofol exposure after I.V. administration of the prodrug.

[2] = Crossover study of plasma bioavailability of propofol in human volunteers after oral or intraduodenal prodrug (Table II); type: in vivo; conditions: for Blood plasma concentration of propofol, Mean / Blood plasma concentration of propofol, Median: human volunteers
From the text: Blood plasma samples were drawn at various time points post administration and frozen until chromatographic analysis of propofol concentrations. Plasma propofol concentrations at various time points after administration are given for both routes of administration in Table II, below: […]

[3] = ID (intraduodenal) 400 mg, 0.0 hr
[4] = ID (intraduodenal) 400 mg, 0.08 hr
[5] = ID (intraduodenal) 400 mg, 0.17 hr
[6] = ID (intraduodenal) 400 mg, 0.33 hr
[7] = ID (intraduodenal) 400 mg, 0.50 hr
[8] = ID (intraduodenal) 400 mg, 0.75 hr
[9] = ID (intraduodenal) 400 mg, 1.0 hr
[10] = ID (intraduodenal) 400 mg, 1.5 hr
[11] = ID (intraduodenal) 400 mg, 2.0 hr
[12] = ID (intraduodenal) 400 mg, 4.0 hr
[13] = ID (intraduodenal) 400 mg, 6.0 hr
[14] = ID (intraduodenal) 400 mg, 9.0 hr

CC(C)c1cccc(C(C)C)c1OCOP(=O)([O-])[O-].[Na+].[Na+] [O-phosphonooxymethyl propofol disodium salt]
F_Cmax ([1]; Gb (intraduodenal) 1 mg/kg): 14.4%
F_AUCt ([1]; Gb (intraduodenal) 3 mg/kg): 9.34%
F_Cmax ([1]; Gb (intraduodenal) 3 mg/kg): 27.3%
F_AUCt ([1]; Gb (intraduodenal) 10 mg/kg): 27.4%
F_Cmax ([1]; Gb (intraduodenal) 10 mg/kg): 35.0%
F_AUCt ([1]; Gb (intraduodenal) 30 mg/kg): 55%
F_Cmax ([1]; Gb (intraduodenal) 30 mg/kg): 74.0%
F_AUCt ([1]; Gb (intraduodenal) 100 mg/kg): 161%
F_Cmax ([1]; Gb (intraduodenal) 100 mg/kg): 102%
F_AUCt ([1]; I.V. 5 mg/kg): 100%
F_Cmax ([1]; I.V. 5 mg/kg): 100%
F_AUCt ([1]; I.V. 50 mg/kg): 117.9%
F_Cmax ([1]; I.V. 50 mg/kg): 86.7%
bioavailability of propofol liberated from the prodrug (in words) ([1]; gastric bypass): markedly enhanced
F_AUCt ([1]; p.o. 20 mg/kg): 13.3%
F_Cmax ([1]; p.o. 20 mg/kg): 3.72%
F_AUCt ([1]; p.o. 50 mg/kg): 22.2%
F_Cmax ([1]; p.o. 50 mg/kg): 4.65%
F_Cmax ([1]; p.o. 100 mg/kg): 9.20%
F_AUCt ([1]; p.o. 100 mg/kg, disodium salt): 53.2%
F_AUCt ([1]; p.o. 100 mg/kg, listed as test compound, disodium salt): above 50%
Cmax bioavailability of propofol (F Cmax, in words) ([1]; p.o. 20, 50 and 100 mg/kg): limited at all tested dose levels
AUCt ([1]; Gb (intraduodenal) 3 mg/kg): 0.389 µg·min/mL
AUCt ([1]; Gb (intraduodenal) 10 mg/kg): 3.81 µg·min/mL
AUCt ([1]; Gb (intraduodenal) 30 mg/kg): 22.9 µg·min/mL
AUCt ([1]; Gb (intraduodenal) 100 mg/kg): 223 µg·min/mL
AUCt ([1]; I.V. 5 mg/kg): 6.94 µg·min/mL
AUCt ([1]; I.V. 50 mg/kg): 81.8 µg·min/mL
AUCt ([1]; p.o. 20 mg/kg): 3.70 µg·min/mL
AUCt ([1]; p.o. 50 mg/kg): 15.4 µg·min/mL
AUCt ([1]; p.o. 100 mg/kg): 73.8 µg·min/mL
Cmax ([1]; Gb (gastric bypass, intraduodenal) 1 mg/kg): 0.00826 µg/mL
Cmax ([1]; Gb (intraduodenal) 3 mg/kg): 0.0468 µg/mL
Cmax ([1]; Gb (intraduodenal) 10 mg/kg): 0.200 µg/mL
Cmax ([1]; Gb (intraduodenal) 30 mg/kg): 1.27 µg/mL
Cmax ([1]; Gb (intraduodenal) 100 mg/kg): 5.84 µg/mL
Cmax ([1]; I.V. 5 mg/kg): 0.286 µg/mL
Cmax ([1]; I.V. 50 mg/kg): 2.48 µg/mL
Cmax ([1]; p.o. 20 mg/kg): 0.0426 µg/mL
Cmax ([1]; p.o. 50 mg/kg): 0.133 µg/mL
Cmax ([1]; p.o. 100 mg/kg): 0.526 µg/mL
Blood plasma concentration of propofol, Mean [2, 3]: 0.0 ng/mL
Blood plasma concentration of propofol, Median [2, 3]: 0.0 ng/mL
Blood plasma concentration of propofol, Mean [2, 4]: 194.1 ng/mL
Blood plasma concentration of propofol, Median [2, 4]: 144.5 ng/mL
Blood plasma concentration of propofol, Mean [2, 5]: 247.6 ng/mL
Blood plasma concentration of propofol, Median [2, 5]: 210.9 ng/mL
Blood plasma concentration of propofol, Mean [2, 6]: 272.0 ng/mL
Blood plasma concentration of propofol, Median [2, 6]: 277.3 ng/mL
Blood plasma concentration of propofol, Mean [2, 7]: 178.6 ng/mL
Blood plasma concentration of propofol, Median [2, 7]: 211.3 ng/mL
Blood plasma concentration of propofol, Mean [2, 8]: 76.5 ng/mL
Blood plasma concentration of propofol, Median [2, 8]: 52.3 ng/mL
Blood plasma concentration of propofol, Mean [2, 9]: 47.7 ng/mL
Blood plasma concentration of propofol, Median [2, 9]: 45.3 ng/mL
Blood plasma concentration of propofol, Mean [2, 10]: 25.4 ng/mL
Blood plasma concentration of propofol, Median [2, 10]: 24.7 ng/mL
Blood plasma concentration of propofol, Mean [2, 11]: 16.4 ng/mL
Blood plasma concentration of propofol, Median [2, 11]: 14.2 ng/mL
Blood plasma concentration of propofol, Mean [2, 12]: 5.0 ng/mL
Blood plasma concentration of propofol, Median [2, 12]: 5.6 ng/mL
Blood plasma concentration of propofol, Mean [2, 13]: 0.0 ng/mL
Blood plasma concentration of propofol, Median [2, 13]: 0.0 ng/mL
Blood plasma concentration of propofol, Mean [2, 14]: 0.0 ng/mL
Blood plasma concentration of propofol, Median [2, 14]: 0.0 ng/mL
Blood plasma concentration of propofol, Mean ([2]; Oral 400 mg, 0.0 hr): 0.0 ng/mL
Blood plasma concentration of propofol, Median ([2]; Oral 400 mg, 0.0 hr): 0.0 ng/mL
Blood plasma concentration of propofol, Mean ([2]; Oral 400 mg, 0.08 hr): 6.6 ng/mL
Blood plasma concentration of propofol, Median ([2]; Oral 400 mg, 0.08 hr): 0.0 ng/mL
Blood plasma concentration of propofol, Mean ([2]; Oral 400 mg, 0.17 hr): 103.9 ng/mL
Blood plasma concentration of propofol, Median ([2]; Oral 400 mg, 0.17 hr): 43.6 ng/mL
Blood plasma concentration of propofol, Mean ([2]; Oral 400 mg, 0.33 hr): 197.2 ng/mL
Blood plasma concentration of propofol, Median ([2]; Oral 400 mg, 0.33 hr): 153.6 ng/mL
Blood plasma concentration of propofol, Mean ([2]; Oral 400 mg, 0.50 hr): 144.1 ng/mL
Blood plasma concentration of propofol, Median ([2]; Oral 400 mg, 0.50 hr): 151.4 ng/mL
Blood plasma concentration of propofol, Mean ([2]; Oral 400 mg, 0.75 hr): 75.0 ng/mL
Blood plasma concentration of propofol, Median ([2]; Oral 400 mg, 0.75 hr): 71.1 ng/mL
Blood plasma concentration of propofol, Mean ([2]; Oral 400 mg, 1.0 hr): 53.2 ng/mL
Blood plasma concentration of propofol, Median ([2]; Oral 400 mg, 1.0 hr): 37.6 ng/mL
Blood plasma concentration of propofol, Mean ([2]; Oral 400 mg, 1.5 hr): 32.3 ng/mL
Blood plasma concentration of propofol, Median ([2]; Oral 400 mg, 1.5 hr): 22.8 ng/mL
Blood plasma concentration of propofol, Mean ([2]; Oral 400 mg, 2.0 hr): 19.0 ng/mL
Blood plasma concentration of propofol, Median ([2]; Oral 400 mg, 2.0 hr): 18.8 ng/mL
Blood plasma concentration of propofol, Mean ([2]; Oral 400 mg, 4.0 hr): 6.2 ng/mL
Blood plasma concentration of propofol, Median ([2]; Oral 400 mg, 4.0 hr): 6.6 ng/mL
Blood plasma concentration of propofol, Mean ([2]; Oral 400 mg, 6.0 hr): 0.9 ng/mL
Blood plasma concentration of propofol, Median ([2]; Oral 400 mg, 6.0 hr): 0.0 ng/mL
Blood plasma concentration of propofol, Mean ([2]; Oral 400 mg, 9.0 hr): 0.9 ng/mL
Blood plasma concentration of propofol, Median ([2]; Oral 400 mg, 9.0 hr): 0.0 ng/mL
plasma propofol after intraduodenal instillation compared to oral (in words) ([2]; intraduodenal 400 mg, human subjects): appreciably higher levels, and at earlier timepoints
plasma propofol after oral administration (in words) ([2]; oral 400 mg, human subjects): appreciable plasma concentrations of propofol
plasma propofol concentrations above the upper limit of quantification ([2]; some values from four of the subjects, second, third and fourth timepoints, 400 mg): > 400 ng/mL
